Data on 53 compounds can be found in patent US20170280720A1, “ARGININE […] INHIBITORS AND USES THEREOF” (EPIZYME, INC., priority 2014, published 2017).

The assay addresses T1, human PRMT1 (Homo sapiens, UniProt Q99873).
T1 construct: GST-tagged PRMT1; made in house; host or cells: High Five insect cells (baculovirus, pFastBacI)
Briefly: PRMT1 biochemical assay (3H-SAM Flashplate, peptide substrate). Conditions: read-out: PRMT1_ IC50. The source says: S-adenosylmethionine (SAM), S-adenosylhomocysteine (SAH), bicine, Tween20, dimethylsulfoxide (DMSO), bovine skin gelatin (BSG), and Tris(2-carboxyethyl)phosphine hydrochloride solution (TCEP) were purchased from Sigma-Aldrich at the highest level of purity possible. ^3H-SAM was purchase from American Radiolabeled Chemicals with a specific activity of 80 Ci/mmol. 384-well streptavidin Flashplates were purchased from PerkinElmer.
Peptide representative of human histone H4 residues 36-50 was synthesized with an N-terminal linker-affinity tag motif and a C-terminal amide cap by 21st Century Biochemicals. The peptide was purified by high-performance liquid chromatography (HPLC) to greater than 95% purity and confirmed by liquid chromatography mass spectrometry (LC-MS). The sequence was Biot-Ahx-[…]-amide (SEQ ID NO.: 1).
Full-length human PRMT1 isoform 1 (NM_001536.5) transcript clone was amplified from an HEK 293 cDNA library, incorporating flanking 5′ sequence encoding a FLAG tag ([…]) (SEQ ID NO.: 2) fused directly to Met 1 of PRMT1. The amplified gene was subcloned into pFastBacI (Life Technologies) modified to encode an N-terminal GST tag and a TEV cleavage sequence ([…] […] […] […] QGGNS)(SEQ ID NO.: 3) fused to Asp of the Flag tag of PRMT1.
Recombinant baculovirus were generated according to Bac-to-Bac kit instructions (Life Technologies). Protein over-expression was accomplished by infecting exponentially growing High Five insect cell culture at 1.5×10^6 cell/ml with 1:100 ratio of virus. Infections were carried out at 27° C. for 48 hours, harvested by centrifugation, and stored at −80° C. for purification.
GST-tagged PRMT1 was eluted with 50 mM Tris, 2 mM glutathione, pH 7.8, dialysed in buffer A and concentrated to 1 mg/mL. The purity of recovered protein was 73%. Reference: Wasilko, D. J. and S. E. Lee: “TIPS: titerless infected-cells preservation and scale-up” Bioprocess J., 5 (2006), pp. 29-32.
General Procedure for PRMT1 Enzyme Assays on Peptide Substrates.
The assays were all performed in a buffer consisting of 20 mM Bicine (pH=7.6), 1 mM TCEP, 0.005% BSG, and 0.002% Tween 20, prepared on the day of use. Compounds in 100% DMSO (1 ul) were spotted into a polypropylene 384-well V-bottom plates (Greiner) using a Platemate Plus outfitted with a 384-channel head (Thermo Scientific). DMSO (1 ul) was added to Columns 11, 12, 23, 24, rows A-H for the maximum signal control and 1 ul of SAH, a known product and inhibitor of PRMT1, was added to columns 11, 12, 23, 24, rows I-P for the minimum signal control. A cocktail (40 ul) containing the PRMT1 enzyme was added by Multidrop Combi (Thermo-Fisher). The compounds were allowed to incubate with PRMT1 for 30 min at room temperature, then a cocktail (10 ul) containing SAM and peptide was added to initiate the reaction (final volume=51 ul). The final concentrations of the components were as follows: PRMT1 was 0.5 nM, ^3H-SAM was 200 nM, non-radiolabeled SAM was 1.5 uM, peptide was 20 nM, SAH in the minimum signal control wells was 1 mM, and the DMSO concentration was 2%. The assays were stopped by the addition of non-radiolabeled SAM (10 ul) to a final concentration of 300 uM, which dilutes the ^3H-SAM to a level where its incorporation into the peptide substrate is no longer detectable. 50 ul of the reaction in the 384-well polypropylene plate was then transferred to a 384-well Flashplate and the biotinylated peptides were allowed to bind to the streptavidin surface for at least 1 hour before being washed once with 0.1% Tween20 in a Biotek ELx405 plate washer. The plates were then read in a PerkinElmer TopCount plate reader to measure the quantity of ^3H-labeled peptide bound to the Flashplate surface, measured as disintegrations per minute (dpm) or alternatively, referred to as counts per minute (cpm).
Where dpm=disintegrations per minute, cmpd=signal in assay well, and min and max are the respective minimum and maximum signal controls. […]

T1 sequence (Q99873 with tags, fused parts or gaps): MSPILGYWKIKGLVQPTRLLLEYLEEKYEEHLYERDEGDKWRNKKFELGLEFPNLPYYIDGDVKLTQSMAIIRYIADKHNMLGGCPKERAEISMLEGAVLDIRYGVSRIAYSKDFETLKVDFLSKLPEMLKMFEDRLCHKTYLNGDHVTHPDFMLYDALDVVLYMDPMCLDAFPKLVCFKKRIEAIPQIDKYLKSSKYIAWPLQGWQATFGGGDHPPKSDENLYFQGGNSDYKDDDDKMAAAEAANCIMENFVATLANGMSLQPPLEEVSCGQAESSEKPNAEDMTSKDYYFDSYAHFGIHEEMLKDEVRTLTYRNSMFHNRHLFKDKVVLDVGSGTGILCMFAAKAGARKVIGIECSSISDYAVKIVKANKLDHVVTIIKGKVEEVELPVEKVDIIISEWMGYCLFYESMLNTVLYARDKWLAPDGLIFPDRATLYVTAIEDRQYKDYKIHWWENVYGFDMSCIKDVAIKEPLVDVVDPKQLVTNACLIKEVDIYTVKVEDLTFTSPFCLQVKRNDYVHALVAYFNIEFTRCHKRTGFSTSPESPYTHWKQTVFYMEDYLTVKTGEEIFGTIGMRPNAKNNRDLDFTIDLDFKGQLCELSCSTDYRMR

In the case of `Cc1c(CNc2nc(-c3cccc(CN(C)CCN)c3)nc3c2cnn3C2CC2)cnn1C` [Compound 52], the IC50 came to 226 nM.

As to `COc1cccc(-n2cnc3ccc(-c4ccc(CNCCN)cc4)cc32)c1` [Compound 110], the IC50 is 583 nM.

In the case of `CC(C)n1ncc2c(NC(=O)OCc3ccccc3)cc(-c3cccc(CN(C)CCN)c3)nc21` [Compound 84], the half-inhibitory concentration (IC50) is 387 nM.

Take `CNCCN(C)Cc1cccc(-c2nc(NC3CC3)c3cnn(C4CC4)c3n2)c1` [Compound 114]: the IC50 is 617 nM.

For the compound `CCOC(=O)c1cc(-c2cccc(CN(C)CCNC)c2)nc2c1cnn2C(C)C` [Compound 78], the IC50 amounted to 337 nM.

As to `CN(CCN)Cc1cccc(-c2nc(NCc3cn4ccsc4n3)c3cnn(C4CC4)c3n2)c1` [Compound 5], the IC50 came to 36.9 nM.

Regarding `CCNc1cc(-c2cccc(CN(C)CCNC)c2)nc2c1cnn2C(C)C` [Compound 72], the half-inhibitory concentration (IC50) came to 303 nM.

`CNCCN(C)Cc1cccc(-c2ccc3ncn(C)c3c2)c1` [Compound 92]: the IC50 was determined as 432 nM.

As to `CC(C)n1ncc2c(C(=O)N[C@@H](C)c3ccccc3)cc(-c3cccc(CNCCN)c3)cc21` [Compound 125], the IC50 was 783 nM.

Take `CNCCN(C)Cc1cccc(-c2cc(N3CCC3)c3cnn(C(C)C)c3n2)c1` [Compound 79]: the IC50 was 341 nM.

With `CNCCN(C)Cc1cccc(-c2cc(NC)c3cnn(C(C)C)c3n2)c1` [Compound 121], the IC50 turned out to be 721 nM.

`CNCCN(C)Cc1cccc(-c2cc(C#N)c3cnn(C(C)C)c3n2)c1` [Compound 74]: the IC50 came to 309 nM.

As for `CNCCN(C)Cc1cccc(-c2cc(N(C)C3CC3)c3cnn(C(C)C)c3n2)c1` [Compound 95], the IC50 turned out to be 451 nM.

On to `CNCCN(C)Cc1cccc(-c2cc(N3CCCC(C#N)C3)c3cnn(C(C)C)c3n2)c1` (centres unmarked) [Compound 55], for which the IC50 was 236 nM.

Take `CNCCN(C)Cc1cccc(-c2cc(C(=O)N3CCCCC3)c3cnn(C(C)C)c3n2)c1` [Compound 56]: the IC50 came out at 238 nM.

As for `CC(C)n1ncc2c(C(=O)NCC3CCOCC3)cc(-c3cccc(CN(C)CCN)c3)nc21` [Compound 108], the IC50 was found to be 568 nM.

Take `CNCCN(C)Cc1cccc(-c2nc(N3CCOCC3)c3cnn(C(C)C)c3n2)c1` [Compound 99]: the IC50 came out at 457 nM.

Consider `CNCCN(C)Cc1cccc(-c2cc(NC(=O)NC(C)C)c3cnn(C(C)C)c3n2)c1` [Compound 85], for which the IC50 amounted to 391 nM.

As to `CC(C)n1ncc2c(NC3CCOCC3)cc(-c3cccc(CN(C)CCN)c3)nc21` [Compound 101], the IC50 came out at 488 nM.

Take `Cc1cccc(-n2cnc3ccc(-c4ccc(CNCCN)cc4)cc32)c1` [Compound 106]: the IC50 was 558 nM.

Turning to `CNCCN(C)Cc1cccc(-c2cc(C(=O)NCCC(=O)NCC3CCOCC3)c3cnn(C(C)C)c3n2)c1` [Compound 64], the IC50 stood at 271 nM.

Regarding `NCCNCc1ccc(-c2ccc3ncn(CC4CCNCC4)c3c2)cc1` [Compound 70], the IC50 was determined as 295 nM.

With `CNCCN(C)Cc1cccc(-c2cc(OC)c3cnn(C(C)C)c3n2)c1` [Compound 124], the IC50 turned out to be 770 nM.

Consider `CNCCN(C)Cc1cccc(-c2ccc3nc[nH]c3c2)c1` [Compound 75], for which the IC50 worked out at 312 nM.

Turning to `CCOc1cc(-c2cccc(CN(C)CCNC)c2)nc2c1cnn2C(C)C` [Compound 53], the half-maximal inhibitory concentration (IC50) was found to be 228 nM.

Regarding `CNCCN(C)Cc1cccc(-c2cc(OC3CCOC3)c3cnn(C(C)C)c3n2)c1` (centres unmarked) [Compound 102], the IC50 amounted to 492 nM.

With `CN(CCN)Cc1cccc(-c2nc(NCc3ccncc3)c3cnn(C4CC4)c3n2)c1` [Compound 66], the IC50 is 274 nM.

`CNCCN(C)Cc1cccc(-c2cc(C(=O)NCCC(=O)NCc3ccn(C)n3)c3cnn(C(C)C)c3n2)c1` [Compound 83]: the IC50 was found to be 378 nM.

Regarding `CNCCN(C)Cc1cccc(-c2nc(NCc3cn4ccsc4n3)c3cnn(C4CC4)c3n2)c1` [Compound 6], the IC50 came out at 36.9 nM.

Take `Cc1ccccc1Cn1cnc2ccc(-c3ccc(CNCCN)cc3)cc21` [Compound 82]: the IC50 is 375 nM.

Turning to `CNCCN(C)Cc1cccc(-c2nc(NCc3cnn(C)c3C)c3cnn(C4CC4)c3n2)c1` [Compound 57], the IC50 came to 238 nM.

For the compound `COc1ccccc1Cn1cnc2ccc(-c3ccc(CNCCN)cc3)cc21` [Compound 80], the IC50 stood at 345 nM.

For `CNCCN(C)Cc1cccc(-c2nc(NCc3ccncc3)c3cnn(C4CC4)c3n2)c1` [Compound 69], the IC50 stood at 282 nM.

With `CN(CCN)Cc1cccc(-c2nc(NC3CC3)c3cnn(C4CC4)c3n2)c1` [Compound 96], the IC50 was 451 nM.

`Cc1ccc(Cn2cnc3ccc(-c4ccc(CNCCN)cc4)cc32)cc1` [Compound 97]: the IC50 was found to be 452 nM.

`CC(C)NC(=O)Nc1cc(-c2cccc(CN(C)CCN)c2)nc2c1cnn2C(C)C` [Compound 86]: the IC50 is 397 nM.

Regarding `CNCCN(C)Cc1cccc(-c2cc(C(=O)NCc3ccccn3)c3cnn(C(C)C)c3n2)c1` [Compound 98], the IC50 turned out to be 456 nM.

`CNCCN(C)Cc1cccc(-c2cc(-c3cnn(C)c3)c3cnn(C(C)C)c3n2)c1` [Compound 49, N1-(3-(1-isopropyl-4-(1-methyl-1H-pyrazol-4-yl)-1H-pyrazolo[3,4-b]pyridin-6-yl)benzyl)-N1,N2-dimethylethane-1,2-diamine]: the IC50 came out at 213 nM.

In the case of `CNCCN(C)Cc1cccc(-c2cc(N3CCC(C(F)(F)F)CC3)c3cnn(C(C)C)c3n2)c1` [Compound 50], the IC50 was 223 nM.

`CC(C)n1ncc2c(NS(=O)(=O)N(C)C)cc(-c3cccc(CN(C)CCN)c3)nc21` [Compound 107]: the IC50 is 562 nM.

For `CNCCN(C)Cc1cccc(-c2cc(C(=O)NC3CCOCC3)c3cnn(C4CC4)c3n2)c1` [Compound 87], the IC50 worked out at 412 nM.

For the compound `Cc1c(C(=O)NCc2ccccc2)cc(-c2ccc(CN(C)CCN)cc2)c2cn[nH]c12` [Compound 7], the IC50 was 45.2 nM.

As to `CC(C)n1ncc2c(NC(=O)N(C)C)cc(-c3cccc(CN(C)CCN)c3)nc21` [Compound 116], the IC50 came to 640 nM.

Take `CNCCN(C)Cc1cccc(-c2cc(C(=O)NCCCCC(=O)NCC3CCOCC3)c3cnn(C(C)C)c3n2)c1` [Compound 118]: the IC50 was determined as 668 nM.

Regarding `CNCCN(C)Cc1cccc(-c2nc(NCc3cccnc3)c3cnn(C4CC4)c3n2)c1` [Compound 63], the half-maximal inhibitory concentration (IC50) stood at 262 nM.

Turning to `CNCCN(C)Cc1cccc(-c2cc(N3CCC(C#N)CC3)c3cnn(C(C)C)c3n2)c1` [Compound 93], the IC50 is 433 nM.

As to `CNCCN(C)Cc1cccc(-c2ccc3cnn(C(C)C)c3n2)c1` [Compound 73], the IC50 is 306 nM.

For the compound `CNCCN(C)Cc1cccc(-c2cc(C(=O)NCCCC(=O)NCC3CCOCC3)c3cnn(C(C)C)c3n2)c1` [Compound 60], the IC50 was 248 nM.

For the compound `CNCCN(C)Cc1cccc(-c2cc(C(=O)NCCCCCC(=O)NCc3ccn(C)n3)c3cnn(C(C)C)c3n2)c1` [Compound 117], the IC50 came out at 642 nM.

Regarding `NCCNCc1ccc(-c2ccc3ncn(Cc4ccc(C(=O)N5CCCC5)cc4)c3c2)cc1` [Compound 104], the IC50 was 531 nM.

For the compound `CNCCN(C)Cc1cccc(-c2cc(C(=O)NCC3CCOCC3)c3cnn(C(C)C)c3n2)c1` [Compound 105], the IC50 came out at 548 nM.

Regarding `CC(C)n1ncc2c(C(=O)N(C)[C@@H](C)c3ccccc3)cc(-c3cccc(CN(C)CCN)c3)cc21` [Compound 3], the IC50 came to 26.7 nM.

Regarding `CC(C)n1ncc2c(C(=O)NCc3ccccc3Cl)cc(-c3cccc(CN(C)CCN)c3)nc21` [Compound 54], the IC50 amounted to 231 nM.
